In article PMC7934941, “Pharmacological chaperone action in humanized mouse models of MC4R-linked obesity” (JCI Insight, 2021):

How the values were obtained:
[1] = biological target: T1, WT-hMC4R (Homo sapiens, UniProt P32245); assay: Melanocortin agonist cAMP production, WT receptor; type: cell-based; conditions: % of Emax of untreated WT-hMC4R upon 1 μM NDP-α-MSH
T1 construct: expressed in transfected cells
Protocol: (§1) Data are the means ± SEM of 3 independent experiments.
(§2) Cells were kept on ice for 5 minutes before proceeding to cAMP measurement. […] For all assays, plates were then put at –80°C at least 90 minutes and thawed at RT on Heidolph Titramax 100 shaker at speed 1050 rpm. Cell lysates were then transferred to 384-well plates, lysed, and incubated with cAMP labeled with the dye d2 and anti-cAMP M antibody labeled with Cryptate (cAMP dynamic-2 kit, cisbio) according to the manufacturer’s protocol. Reading of the homogeneous time-resolved fluorescence signal was performed on an Artemis time-resolved fluorescence resonance energy transfer plate reader (Cosmo Bio USA).

[2] = biological target: T2, R165W-hMC4R (Homo sapiens, UniProt P32245, R165W); assay: Melanocortin agonist cAMP production, mutant receptor; type: cell-based
T2 construct: expressed in transfected cells
T2 sequence (P32245 whole entry R165W): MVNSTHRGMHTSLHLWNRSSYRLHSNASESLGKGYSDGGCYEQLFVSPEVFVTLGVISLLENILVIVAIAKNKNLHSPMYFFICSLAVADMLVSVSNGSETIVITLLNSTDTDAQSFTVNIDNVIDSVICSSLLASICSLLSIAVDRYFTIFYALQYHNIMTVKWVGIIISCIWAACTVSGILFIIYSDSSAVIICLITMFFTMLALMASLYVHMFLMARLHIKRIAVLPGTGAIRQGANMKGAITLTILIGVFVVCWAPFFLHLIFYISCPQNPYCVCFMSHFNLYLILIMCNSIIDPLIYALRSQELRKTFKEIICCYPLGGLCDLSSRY
Protocol: as §1, §2

[3] = tested on: hMC4R-KI, loxTB MC4R-null and nontransgenic mice; assay: Acute icv melanocortin agonist sensitivity, nocturnal food intake; type: in vivo, mouse; conditions: homozygous loxTB MC4R-null mice
Protocol: (A–C) Immunohistochemical labeling of MC4R-positive neurons. […] Inset in A: higher power magnification of boxed areas containing GFP immune reactive neurons (brown cytoplasmic reaction product). Arrows in the center and right insets indicate GFP-positive neurons. Scale bars: 100 μm (A), 50 μm (A, inset), […] (B) and 10 μm (C). […] Food intake was measured 4 hours postadministration in dark phase and reported in percentage.
Food consumption was then assessed between ZT10 and ZT15 (3 hours after lights off). Food consumption was then normalized relative to the basal food consumption measured the day before for each mouse (% food intake vs. basal) and is expressed as means ± SEM.
The guide cannulas were secured with screws and cranioplastic cement (Dentsply Canada). To prevent clogging and to reduce the potential for brain infection, sterile obturators (PlasticsOne) were inserted into the guide cannulas. Appropriate cannula placement was functionally verified before experiments using the dipsogenic effects of angiotensin 2 injections (5 ng) as positive control, 5 days after surgery.
The day prior to agonist sensitivity assay, basal food consumption was measured individually between Zeitgeber time 10 (ZT10) (10 hours after lights on) and ZT15 (3 hours after lights off). […] Food consumption was then assessed between ZT10 and ZT15. […]

[4] = biological target: human melanocortin type 4 receptor (WT) (human) (UniProt P32245); conditions: scale: pEC50
human melanocortin type 4 receptor (WT) (human), sequence (P32245 whole entry): as the sequence (P32245 whole entry R165W) above, with W165R counted along it

[5] = biological target: mouse melanocortin type 4 receptor (mouse) (UniProt P56450); conditions: scale: pEC50
mouse melanocortin type 4 receptor (mouse), sequence (P56450 whole entry): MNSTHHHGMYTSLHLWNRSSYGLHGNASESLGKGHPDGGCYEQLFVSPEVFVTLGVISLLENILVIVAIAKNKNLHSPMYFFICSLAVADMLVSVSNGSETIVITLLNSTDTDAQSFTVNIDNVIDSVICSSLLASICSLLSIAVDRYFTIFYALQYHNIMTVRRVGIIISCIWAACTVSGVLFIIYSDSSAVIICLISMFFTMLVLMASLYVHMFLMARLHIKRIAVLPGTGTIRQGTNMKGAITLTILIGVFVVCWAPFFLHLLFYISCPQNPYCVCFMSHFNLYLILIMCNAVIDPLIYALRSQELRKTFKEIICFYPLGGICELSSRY

T1 sequence (P32245 whole entry): as the sequence (P32245 whole entry R165W) above, with W165R counted along it

Emax ([1]; WT-hMC4R after 10 μM UM0130866 for 15 hours, washed) [%] | Emax ([1]; WT-hMC4R, untreated) [%] | Emax [2] [%] | potency (pEC50) of α-MSH to activate Gs, BRET-based biosensor directly monitoring Gs activation [4] | potency (pEC50) of α-MSH to activate Gs, BRET-based biosensor directly monitoring Gs activation [5] | Molecule | food intake response (ZT10-ZT15) [3]
92.7 ± 15.8 | 112 ± 2.55 | 115 ± 43.5 |  |  | CSCC[C@H](NC(=O)[C@H](CCCNC(=N)N)NC(=O)[C@H](Cc1ccc(O)cc1)NC(=O)[C@@H]1CCCN1C(=O)CNC(=O)[C@H](CCC(=O)O)NC(=O)[C@H](CC(=O)O)NC(=O)[C@H](CCCCN)NC(=O)[C@H](CCCCN)NC(=O)[C@H](CCC(=O)O)NC(=O)[C@H](C)N)C(=O)N[C@@H](CCC(=O)O)C(=O)N[C@@H](Cc1c[nH]cn1)C(=O)N[C@@H](Cc1ccccc1)C(=O)N[C@@H](CCCNC(=N)N)C(=O)N[C@@H](Cc1c[nH]c2ccccc12)C(=O)NCC(=O)N[C@@H](CO)C(=O)N1CCC[C@H]1C(=O)N1CCC[C@H]1C(=O)N[C@@H](CCCCN)C(=O)N[C@@H](CC(=O)O)C(=O)O [β-MSH] | absence of anorexic response
 |  |  | 7.48 | 8.64 | α–melanocyte-stimulating hormone (peptide) | 
